Here are results for 31 compounds from ChEMBL document CHEMBL4651402, “Screening of ~5500 FDA-approved drugs and clinical candidates for anti-SARS-CoV-2 activity” (2021).

The structures appear in SMILES notation.

One assay deals with SARS-CoV-2. In words: microbe, parasite or virus in culture. The conditions noted are these: Severe acute respiratory syndrome coronavirus 2, Vero C1008, 48 h.
The compound `CC(C(N)C(=O)NC(C(=O)O)C1OC(n2ccc(=O)[nH]c2=O)C(O)C1O)C(O)c1ccc(O)cn1` (configuration not stated) displayed an IC50 of over 20 µM.
Still for that read-out and setting: then `Cc1ccc(S(=O)(=O)NC(=O)NC2CCCCCCC2)cc1` [GLYOCTAMIDE], with over 20 µM; and `Cc1onc(-c2ccccc2)c1-c1ccc(S(N)(=O)=O)cc1` [VALDECOXIB], with over 20 µM; and `Nc1c(CC(=O)O)cccc1C(=O)c1ccc(Br)cc1` [BROMFENAC], with over 20 µM.
The compound `CCCOC(=O)Cc1ccc(OCC(=O)N(CC)CC)c(OC)c1` [PROPANIDID] gave an IC50 of over 20 µM.
The same measure, in the same setting: then `Cc1cccc(-c2nn3c(c2-c2ccnc4ccc(C(N)=O)cc24)CCC3)n1` [GALUNISERTIB], with over 20 µM; and `OC[C@H]1O[C@@](O)(CO)[C@@H](O)[C@@H]1O`, with over 20 µM; and `COC(=O)C1=C(C)NC(C)=C(C(=O)OCCCN2CCC(c3ccccc3)(c3ccccc3)CC2)[C@@H]1c1cccc([N+](=O)[O-])c1` [DEXNIGULDIPINE], with over 20 µM.
The same measure, in the same setting: then `CCCCCCCCCCCCCCCCCC(=O)O` [STEARIC ACID], with over 20 µM; and `CCC(C(=O)NC(N)=O)c1ccccc1` (configuration not stated) [PHENETURIDE], with over 20 µM; and `COC(=O)[C@H](c1ccccc1)N1CCC(c2ccc(NC(=O)c3ccccc3-c3ccc(C(F)(F)F)cc3)cc2)CC1` [USISTAPIDE], with over 20 µM.
Still for that read-out and setting: with `O=c1[nH]c2ccccc2n1C1CCN(CCCC(c2ccc(F)cc2)c2ccc(F)cc2)CC1` [PIMOZIDE] the figure was over 20 µM; with `COc1cc(N)c(Cl)cc1C(=O)N[C@@H]1CCNC[C@@H]1OC` [TICALOPRIDE], over 20 µM.
Take `O=C(OCc1ccccc1)c1ccc(O)cc1`: the IC50 was over 20 µM.
On the same count and under the same terms, then `Cc1cc2c(cc1S(N)(=O)=O)S(=O)(=O)CCC2`, with over 20 µM; and `CN[C@@H]1[C@H](O)[C@H](NC)[C@H]2O[C@@]3(O)C(=O)C[C@@H](C)O[C@H]3O[C@@H]2[C@H]1O` [SPECTINOMYCIN], with over 20 µM.
The same measure, in the same setting: then `COCCCOc1ccnc(C[S+]([O-])c2nc3ccccc3[nH]2)c1C` (configuration not stated) [RABEPRAZOLE], with over 20 µM; and `COc1c(O)cc2c(c1O)C1OC(CO)C(O)C(O)C1OC2=O` (configuration not stated), with over 20 µM; and `O[C@@H](c1cc(C(F)(F)F)nc2c(C(F)(F)F)cccc12)[C@H]1CCCCN1` [(S,R)-MEFLOQUINE], with over 20 µM.
On the same count and under the same terms, then `CC(C)C1C(=O)N2CCCC2C2(O)OC(NC(=O)C3C=C4c5cccc6[nH]cc(c56)CC4N(C)C3)(C(C)C)C(=O)N12` (configuration not stated), with over 20 µM; and `N#CCNC(=O)c1ccc(-c2ccnc(Nc3ccc(N4CCOCC4)cc3)n2)cc1` [MOMELOTINIB], with over 20 µM; and `CCN(CC)CCN(CC)CC(=O)Nc1ccccc1Cl` [CLODACAINE], with over 20 µM.
`COc1cc2c(Oc3ccc4[nH]c(C)cc4c3F)ncnc2cc1OCCCN1CCCC1` [CEDIRANIB] gave an IC50 of over 20 µM.
Still for that read-out and setting: then `CC[C@H](C)C(=O)O[C@H]1C[C@@H](C)C=C2C=C[C@H](C)[C@H](CC[C@@H]3C[C@@H](O)CC(=O)O3)[C@H]21` [LOVASTATIN], with over 20 µM; and `CCOC(=O)CC(SP(=S)(OC)OC)C(=O)OCC` (configuration not stated) [MALATHION], with over 20 µM; and `O=C1CN(/N=C/c2ccc([N+](=O)[O-])o2)C(=O)N1` [NITROFURANTOIN], with over 20 µM.
The same measure, in the same setting: then `O=c1c(O)c(-c2cc(O)c(O)c(O)c2)oc2cc(O)cc(O)c12` [MYRICETIN], with over 20 µM.
Still for that read-out and setting: then `NS(=O)(=O)c1cc2c(cc1C(F)(F)F)NC(Cc1ccccc1)NS2(=O)=O` (configuration not stated) [BENDROFLUMETHIAZIDE], with over 20 µM.
`CCO[C@@H]1O[C@@H]2O[C@@]3(C)CC[C@@H]4[C@H](C)CC[C@@H]([C@H]1C)[C@@]24OO3` yielded an IC50 of over 20 µM.
Compound `CC(C)NCC(O)c1ccc(O)c(NS(C)(=O)=O)c1` (configuration not stated) [SOTERENOL] came in with an IC50 of over 20 µM.
`Cc1ccccc1OCC(O)CNCCn1cc(C)c(=O)[nH]c1=O` (configuration not stated) [PRIMIDOLOL]: the IC50 was over 20 µM.

The assay is the same for the next values; noted with them: Severe acute respiratory syndrome coronavirus 2, Vero C1008, 48 h, read-out: pIC50 (converted).
In the case of `CC(C(N)C(=O)NC(C(=O)O)C1OC(n2ccc(=O)[nH]c2=O)C(O)C1O)C(O)c1ccc(O)cn1` (configuration not stated), the IC50 is over 20 µM.
On the same count and under the same terms, then `Cc1ccc(S(=O)(=O)NC(=O)NC2CCCCCCC2)cc1` [GLYOCTAMIDE], with over 20 µM; and `Cc1onc(-c2ccccc2)c1-c1ccc(S(N)(=O)=O)cc1` [VALDECOXIB], with over 20 µM.
The same measure, in the same setting: with `Nc1c(CC(=O)O)cccc1C(=O)c1ccc(Br)cc1` [BROMFENAC] the figure was over 20 µM; with `CCCOC(=O)Cc1ccc(OCC(=O)N(CC)CC)c(OC)c1` [PROPANIDID], over 20 µM.
The same measure, in the same setting: then `Cc1cccc(-c2nn3c(c2-c2ccnc4ccc(C(N)=O)cc24)CCC3)n1` [GALUNISERTIB], with over 20 µM; and `OC[C@H]1O[C@@](O)(CO)[C@@H](O)[C@@H]1O`, with over 20 µM.
With `COC(=O)C1=C(C)NC(C)=C(C(=O)OCCCN2CCC(c3ccccc3)(c3ccccc3)CC2)[C@@H]1c1cccc([N+](=O)[O-])c1` [DEXNIGULDIPINE], the IC50 is over 20 µM.
Take `CCCCCCCCCCCCCCCCCC(=O)O` [STEARIC ACID]: the IC50 is over 20 µM.
The same measure, in the same setting: then `CCC(C(=O)NC(N)=O)c1ccccc1` (configuration not stated) [PHENETURIDE], with over 20 µM; and `COC(=O)[C@H](c1ccccc1)N1CCC(c2ccc(NC(=O)c3ccccc3-c3ccc(C(F)(F)F)cc3)cc2)CC1` [USISTAPIDE], with over 20 µM; and `O=c1[nH]c2ccccc2n1C1CCN(CCCC(c2ccc(F)cc2)c2ccc(F)cc2)CC1` [PIMOZIDE], with over 20 µM.
The same measure, in the same setting: then `COc1cc(N)c(Cl)cc1C(=O)N[C@@H]1CCNC[C@@H]1OC` [TICALOPRIDE], with over 20 µM.
Consider `O=C(OCc1ccccc1)c1ccc(O)cc1`, for which the IC50 is over 20 µM.
Same read-out and setting: with `Cc1cc2c(cc1S(N)(=O)=O)S(=O)(=O)CCC2` the figure was over 20 µM; with `CN[C@@H]1[C@H](O)[C@H](NC)[C@H]2O[C@@]3(O)C(=O)C[C@@H](C)O[C@H]3O[C@@H]2[C@H]1O` [SPECTINOMYCIN], over 20 µM.
On the same count and under the same terms, then `COCCCOc1ccnc(C[S+]([O-])c2nc3ccccc3[nH]2)c1C` (configuration not stated) [RABEPRAZOLE], with over 20 µM; and `COc1c(O)cc2c(c1O)C1OC(CO)C(O)C(O)C1OC2=O` (configuration not stated), with over 20 µM.
Still for that read-out and setting: with `O[C@@H](c1cc(C(F)(F)F)nc2c(C(F)(F)F)cccc12)[C@H]1CCCCN1` [(S,R)-MEFLOQUINE] the figure was over 20 µM; with `CC(C)C1C(=O)N2CCCC2C2(O)OC(NC(=O)C3C=C4c5cccc6[nH]cc(c56)CC4N(C)C3)(C(C)C)C(=O)N12` (configuration not stated), over 20 µM.
Turning to `N#CCNC(=O)c1ccc(-c2ccnc(Nc3ccc(N4CCOCC4)cc3)n2)cc1` [MOMELOTINIB], the IC50 is over 20 µM.
Still for that read-out and setting: with `CCN(CC)CCN(CC)CC(=O)Nc1ccccc1Cl` [CLODACAINE] the figure was over 20 µM; with `COc1cc2c(Oc3ccc4[nH]c(C)cc4c3F)ncnc2cc1OCCCN1CCCC1` [CEDIRANIB], over 20 µM.
Same read-out and setting: then `CC[C@H](C)C(=O)O[C@H]1C[C@@H](C)C=C2C=C[C@H](C)[C@H](CC[C@@H]3C[C@@H](O)CC(=O)O3)[C@H]21` [LOVASTATIN], with over 20 µM.
On the same count and under the same terms, with `CCOC(=O)CC(SP(=S)(OC)OC)C(=O)OCC` (configuration not stated) [MALATHION] the figure was over 20 µM; with `O=C1CN(/N=C/c2ccc([N+](=O)[O-])o2)C(=O)N1` [NITROFURANTOIN], over 20 µM; with `O=c1c(O)c(-c2cc(O)c(O)c(O)c2)oc2cc(O)cc(O)c12` [MYRICETIN], over 20 µM.
Consider `NS(=O)(=O)c1cc2c(cc1C(F)(F)F)NC(Cc1ccccc1)NS2(=O)=O` (configuration not stated) [BENDROFLUMETHIAZIDE], for which the IC50 is over 20 µM.
The same measure, in the same setting: then `CCO[C@@H]1O[C@@H]2O[C@@]3(C)CC[C@@H]4[C@H](C)CC[C@@H]([C@H]1C)[C@@]24OO3`, with over 20 µM.
Still for that read-out and setting: with `CC(C)NCC(O)c1ccc(O)c(NS(C)(=O)=O)c1` (configuration not stated) [SOTERENOL] the figure was over 20 µM.
On the same count and under the same terms, then `Cc1ccccc1OCC(O)CNCCn1cc(C)c(=O)[nH]c1=O` (configuration not stated) [PRIMIDOLOL], with over 20 µM.
